How the values were obtained:
[1] = Powder particle size by laser diffraction; type: physicochemical; set-up: Size, Mean: unit not given here; conditions: dispersed in isooctane; mean ± standard deviation of 3 measurements
Experimental: The powder particle size was assessed by laser diffraction. The system detects scattered and diffracted light by an array of concentrically arranged sensor elements. The software-algorithm is then approximating the particle counts by calculating the z-values of the light intensity values, which arrive at the different sensor elements. The analysis was executed using a SALD-7500 Aggregate Sizer (Shimadzu Corporation, Kyoto, Japan) quantitative laser diffraction system (qLD).
A small amount (spatula tip) of each sample was dispersed in 2 ml isooctane and homogenized by ultrasonication for five minutes. The dispersion was transferred into a batch cell filled with isooctane and analyzed in manual mode.
Data acquisition settings were as follows: Signal Averaging Count per Measurement: 128, Signal Accumulation Count: 3, and Interval: 2 seconds.
Prior to measurement, the system was blanked with isooctane. Each sample dispersion was measured 3 times and the mean values and the standard deviation are reported. Data was evaluated using software WING SALD II version V3.1. Since the refractive index of the sample was unknown, the refractive index of sugar (disaccharide) particles (1.530) was used for determination of size distribution profiles. Size values for mean and median diameter are reported.

[2] = Differential scanning calorimetry (DSC) of spray-dried human milk oligosaccharides; type: physicochemical; conditions: spray-dried powder; for Tg, 1st heating scan / Tg, 2nd heating scan: glass transition temperature; for Tg, 1st heating scan: midpoint of endothermic shift, reheated to 100 °C at 10 K/min; for Tg, 2nd heating scan: second heating cycle, reheated to 150 °C; for endothermal event, normalized energy / endothermal event, peak temperature: DSC heating scan (first heating scan where stated)
Source text: Using differential scanning calorimetry (DSC) on a Mettler Toledo 821e (Mettler Toledo, Giessen, Germany) thermal events of spray-dried human milk oligosaccharides, namely 3-fucosyllactose, 6'-sialyllactose, 3'-sialyllactose, lacto-N-tetraose, and spray-dried mixtures of human milk oligosaccharides, a mixture (HMO-Mix I) of 2'-fucosyllactose/lacto-N-tetraose, and a mixture (HMO Mix II) of 2'-fucosyllactose, 3-fucosyllactose, lacto-N-tetraose, 6'-sialyllactose, 3'-sialyllactose, respectively, were determined.
A Mettler Toledo 821e (Mettler Toledo, Giessen, Germany) was used to determine thermal events of the spray-dried products (glass transition temperature (Tg), further exo- and endothermic events).
Approximately 25 mg of the spray-dried human milk oligosaccharides were analyzed in crimped Al-crucibles (Mettler Toledo, Giessen, Germany). The samples were cooled to 0 °C with 10 K/min and reheated to 100 °C with a scanning rate of 10 K/min. After cooling down the samples to 0 °C in a second heating cycle, the samples were reheated to 150 °C. The midpoint of the endothermic shift of the baseline during the heating scan was taken as glass transition temperature (Tg). Exothermic and endothermic peaks are reported by means of the peak temperature and the normalized energy of the event.

Row | Size, Median [1] [µm] | Tg, 1st heating scan [2] | Tg, 2nd heating scan [2] | endothermal events ([2]; result in words) | endothermal event, normalized energy [2] [J/g] | endothermal event, peak temperature [2] | endothermal relaxation peak after Tg ([2]; first heating scan, result in words) | Size, Mean [1] | Tg, 2nd heating scan ([2]; listed as lacto-N-tetraose) | Compound
1 | 122 ± 16.7 | 48,8 °C | 54,3 °C | No endothermal events were detected |  |  |  |  |  | CC(=O)N[C@H]1[C@H]([C@H](O)[C@H](O)CO)O[C@@](O[C@H]2[C@@H](O)[C@@H](CO)O[C@@H](O[C@H]3[C@H](O)[C@@H](O)C(O)O[C@@H]3CO)[C@@H]2O)(C(=O)O)C[C@@H]1O (some centres unmarked) [3'-sialyllactose]
2 | 141 | 47,6 °C | 49,6 °C |  | -0.22 | 77 °C | detected |  |  | CC(=O)N[C@H]1[C@H]([C@H](O)[C@H](O)CO)O[C@@](OC[C@H]2O[C@@H](O[C@H]3[C@H](O)[C@@H](O)[C@H](O)O[C@@H]3CO)[C@H](O)[C@@H](O)[C@H]2O)(C(=O)O)C[C@@H]1O [6'-sialyllactose]
3 | 141 | 49,9 °C | 79,4 °C |  | -6.04 | about 89 °C |  | 117.3 ± 0.7 | about 79 °C | CC(=O)N[C@H]1[C@H](O[C@H]2[C@@H](O)[C@@H](CO)O[C@@H](O[C@H]3[C@H](O)[C@@H](O)C(O)O[C@@H]3CO)[C@@H]2O)O[C@H](CO)[C@@H](O)[C@@H]1O[C@@H]1O[C@H](CO)[C@H](O)[C@H](O)[C@H]1O (some centres unmarked) [Lacto-N-tetraose, lacto-N-tetraose]

Reference: EP3524067B1, “SPRAY-DRIED MIXTURE OF HUMAN MILK OLIGOSACCHARIDES” (Chr. Hansen HMO GmbH, priority 2018, dated 2019)
